Source: patent US20240279236A1, “COMPOUNDS AND METHODS OF TREATING TUBERCULOSIS” (Fimbrion Therapeutics, Inc., priority 2021, published 2024)

tested on: WT Mtb Erdman strain; assay: Microplate Alamar Blue Assay (MABA), Mtb growth inhibition; format: cell-based, Mycobacterium tuberculosis; conditions: Mycobacterium tuberculosis, ERDMAN, 168 h, Middlebrook 7H9 media, 7 days at 37° C. in 5% CO2

| Compound | IC50 [µM] |
| --- | --- |
| Cc1cc2c(N[C@@H]3C[C@H]3c3ccc(F)c(F)c3)nc(-c3cncnc3)nc2s1 [Example 493, N-((1R,2S)-2-(3,4-difluorophenyl)cyclopropyl)-6-methyl-2-(pyrimidin-5-yl)thieno[2,3-d]pyrimidin-4-amine] | > 10 |
| CNS(=O)(=O)c1ccccc1-c1nc(N[C@@H]2C[C@H]2c2ccc(F)c(F)c2)c2cc(C)sc2n1 [Example 494, 2-(4-(((1R,2S)-2-(3,4-difluorophenyl)cyclopropyl)amino)-6-methylthieno[2,3-d]pyrimidin-2-yl)-N-methylbenzenesulfonamide] | > 10 |
| Cc1cc2c(N[C@@H]3C[C@H]3c3ccc(F)c(F)c3)nc(-c3ccccc3O)nc2s1 [Example 495, 2-(4-(((1R,2S)-2-(3,4-difluorophenyl)cyclopropyl)amino)-6-methylthieno[2,3-d]pyrimidin-2-yl)phenol] | > 10 |
| COc1ccccc1-c1nc(N[C@@H]2C[C@H]2c2ccc(F)c(F)c2)c2cc(C)sc2n1 [Example 496, N-((1R,2S)-2-(3,4-difluorophenyl)cyclopropyl)-2-(2-methoxyphenyl)-6-methylthieno[2,3-d]pyrimidin-4-amine] | > 10 |
| Cc1cc2c(N[C@@H]3C[C@H]3c3ccc(F)c(F)c3)nc(-c3ccc(O)cc3)nc2s1 [Example 497, 4-(4-(((1R,2S)-2-(3,4-difluorophenyl)cyclopropyl)amino)-6-methylthieno[2,3-d]pyrimidin-2-yl)phenol] | > 10 |
| COc1ccc(-c2nc(N[C@@H]3C[C@H]3c3ccc(F)c(F)c3)c3cc(C)sc3n2)cc1 [Example 498, N-((1R,2S)-2-(3,4-difluorophenyl)cyclopropyl)-2-(4-methoxyphenyl)-6-methylthieno[2,3-d]pyrimidin-4-amine] | 4.1 |
| Cc1cc2c(N[C@@H]3C[C@H]3c3ccc(F)c(F)c3)nc(-c3ccc(F)cc3F)nc2s1 [Example 499, 2-(2,4-difluorophenyl)-N-((1R,2S)-2-(3,4-difluorophenyl)cyclopropyl)-6-methylthieno[2,3-d]pyrimidin-4-amine] | 3.4 |
| Cc1cc2c(N[C@@H]3C[C@H]3c3ccc(F)c(F)c3)nc(-c3ccc(F)c(F)c3)nc2s1 [Example 500, 2-(3,4-difluorophenyl)-N-((1R,2S)-2-(3,4-difluorophenyl)cyclopropyl)-6-methylthieno[2,3-d]pyrimidin-4-amine] | 3.6 |
| Cc1cc2c(N[C@@H]3C[C@H]3c3ccc(F)c(F)c3)nc(-c3cccc(N(C)C)c3)nc2s1 [Example 501, N-((1R,2S)-2-(3,4-difluorophenyl)cyclopropyl)-2-(3-(dimethylamino)phenyl)-6-methylthieno[2,3-d]pyrimidin-4-amine] | > 10 |
| C=Cc1nc(NCCCc2ccc(-c3ccc(OC(F)(F)F)cc3)cc2)c2cc(C)sc2n1 [Example 502, 2-ethenyl-6-methyl-N-(3-[4′-(trifluoromethoxy)-[1,1′-biphenyl]-4-yl]propyl)thieno[2,3-d]pyrimidin-4-amine] | 0.006 |
| c1ccc(CCCNc2nc(N3CCOCC3)nc3sccc23)cc1 [Example 504, 2-morpholino-N-(3-phenylpropyl)thieno[2,3-d]pyrimidin-4-amine] | > 10 |
| c1ccc(CCCNc2nc(NC3CC3)nc3sccc23)cc1 [Example 505, N2-cyclopropyl-N4-(3-phenylpropyl)thieno[2,3-d]pyrimidine-2,4-diamine] | 9.1 |
| Cc1cc2c(NCCCc3ccc(OC(F)(F)F)cc3)nc(N3CCCC3)nc2s1 [Example 506, 6-methyl-2-(pyrrolidin-1-yl)-N-(3-(4-(trifluoromethoxy)phenyl)propyl)thieno[2,3-d]pyrimidin-4-amine] | 0.12 |
| Cc1cc2c(NCCCc3ccccc3)nc(N3CCSCC3)nc2s1 [Example 507, 6-methyl-N-(3-phenylpropyl)-2-thiomorpholinothieno[2,3-d]pyrimidin-4-amine] | > 10 |
| Cc1cc2c(NCCCc3ccccc3)nc(N3CCN(C)CC3)nc2s1 [Example 508, 6-methyl-2-(4-methylpiperazin-1-yl)-N-(3-phenylpropyl)thieno[2,3-d]pyrimidin-4-amine] | > 10 |
| Cc1cc2c(NCCCc3ccccc3)nc(N3CCC3)nc2s1 [Example 510, 2-(azetidin-1-yl)-6-methyl-N-(3-phenylpropyl)thieno[2,3-d]pyrimidin-4-amine] | 0.11 |
| Cc1cc2c(NCCCc3ccccc3)nc(N3CC(F)(F)C3)nc2s1 [Example 511, 2-(3,3-difluoroazetidin-1-yl)-6-methyl-N-(3-phenylpropyl)thieno[2,3-d]pyrimidin-4-amine] | 0.57 |
| Cc1cc2c(NCCCc3ccccc3)nc(N3CC(F)C3)nc2s1 [Example 512, 2-(3-fluoroazetidin-1-yl)-6-methyl-N-(3-phenylpropyl)thieno[2,3-d]pyrimidin-4-amine] | 0.61 |
| Cc1cc2c(NCCCc3ccccc3)nc(N3CCC(F)(F)C3)nc2s1 [Example 513, 2-(3,3-difluoropyrrolidin-1-yl)-6-methyl-N-(3-phenylpropyl)thieno[2,3-d]pyrimidin-4-amine] | 0.23 |

| Compound | IC50 [µM] |
| --- | --- |
| Cc1cc2c(NCCCc3ccccc3)nc(N3CCC[C@H]3C)nc2s1 [Example 514, (R)-6-methyl-2-(2-methylpyrrolidin-1-yl)-N-(3-phenylpropyl)thieno[2,3-d]pyrimidin-4-amine] | 7 |
| Cc1cc2c(NCCCc3ccccc3)nc(N3CCC(F)(F)CC3)nc2s1 [Example 515, 2-(4,4-difluoropiperidin-1-yl)-6-methyl-N-(3-phenylpropyl)thieno[2,3-d]pyrimidin-4-amine] | > 10 |
| Cc1cc2c(NCCCc3ccccc3)nc(N3CCCC3)nc2s1 [Example 516, 6-methyl-N-(3-phenylpropyl)-2-(pyrrolidin-1-yl)thieno[2,3-d]pyrimidin-4-amine] | 0.11 |
| Cc1cc2c(NCCCc3ccccc3)nc(N3CCCCC3)nc2s1 [Example 517, 6-methyl-N-(3-phenylpropyl)-2-(piperidin-1-yl)thieno[2,3-d]pyrimidin-4-amine] | 3.1 |
| COC1CN(c2nc(NCCCc3ccccc3)c3cc(C)sc3n2)C1 [Example 518, 2-(3-methoxyazetidin-1-yl)-6-methyl-N-(3-phenylpropyl)thieno[2,3-d]pyrimidin-4-amine] | 1.9 |
| Cc1cc2c(NCCCc3ccccc3)nc(N3CCSC3)nc2s1 [Example 519, 6-methyl-N-(3-phenylpropyl)-2-(thiazolidin-3-yl)thieno[2,3-d]pyrimidin-4-amine] | 0.9 |
| CCN(CC)c1nc(NCCCc2ccccc2)c2cc(C)sc2n1 [Example 520, N2,N2-diethyl-6-methyl-N4-(3-phenylpropyl)thieno[2,3-d]pyrimidine-2,4-diamine] | > 10 |
| CNc1nc(NCCCc2ccccc2)c2cc(C)sc2n1 [Example 521, N2,6-dimethyl-N4-(3-phenylpropyl)thieno[2,3-d]pyrimidine-2,4-diamine] | 0.25 |
| Cc1cc2c(NCCCc3ccccc3)nc(NC3CC3)nc2s1 [Example 522, N2-cyclopropyl-6-methyl-N4-(3-phenylpropyl)thieno[2,3-d]pyrimidine-2,4-diamine] | 4.2 |
| Cc1cc2c(N[C@@H]3C[C@H]3c3ccc(F)c(F)c3)nc(N3CCC(F)(F)C3)nc2s1 [Example 523, N-((1R,2S)-2-(3,4-difluorophenyl)cyclopropyl)-2-(3,3-difluoropyrrolidin-1-yl)-6-methylthieno[2,3-d]pyrimidin-4-amine] | 4.5 |
| Cc1cc2c(N[C@@H]3C[C@H]3c3ccc(F)c(F)c3)nc(N3CC(F)(F)C3)nc2s1 [Example 524, 2-(3,3-difluoroazetidin-1-yl)-N-((1R,2S)-2-(3,4-difluorophenyl)cyclopropyl)-6-methylthieno[2,3-d]pyrimidin-4-amine] | > 10 |
| CNc1nc(N[C@@H]2C[C@H]2c2ccc(F)c(F)c2)c2cc(C)sc2n1 [Example 525, N4-((1R,2S)-2-(3,4-difluorophenyl)cyclopropyl)-N2,6-dimethylthieno[2,3-d]pyrimidine-2,4-diamine] | 4.8 |
| Cc1cc2c(N[C@@H]3C[C@H]3c3ccc(F)c(F)c3)nc(NC3COC3)nc2s1 [Example 526, N4-((1R,2S)-2-(3,4-difluorophenyl)cyclopropyl)-6-methyl-N2-(oxetan-3-yl)thieno[2,3-d]pyrimidine-2,4-diamine] | > 10 |
| Cc1cc2c(N[C@@H]3C[C@H]3c3ccc(F)c(F)c3)nc(N)nc2s1 [Example 527, N4-((1R,2S)-2-(3,4-difluorophenyl)cyclopropyl)-6-methylthieno[2,3-d]pyrimidine-2,4-diamine] | > 10 |
| Cc1cc2c(NCCCc3ccc(-c4ccc(OC(F)(F)F)cc4)cc3)nc(N3CCCC3)nc2s1 [Example 528, 6-methyl-2-(pyrrolidin-1-yl)-N-(3-(4′-(trifluoromethoxy)-[1,1′-biphenyl]-4-yl)propyl)thieno[2,3-d]pyrimidin-4-amine] | 0.018 |
| Cc1cc2c(NCCCc3ccccc3)nc(NCc3ccco3)nc2s1 [Example 529, N2-(furan-2-ylmethyl)-6-methyl-N4-(3-phenylpropyl)thieno[2,3-d]pyrimidine-2,4-diamine] | > 10 |
| Cc1cc2c(NCCCc3ccc(-c4ccc(Cl)cc4)cc3)nc(N(C)C)nc2s1 [Example 531, N4-(3-(4′-chloro-[1,1′-biphenyl]-4-yl)propyl)-N2,N2,6-trimethylthieno[2,3-d]pyrimidine-2,4-diamine] | 0.012 |
| CNc1nc(NCCCc2ccc(-c3ccc(OC(F)(F)F)cc3)cc2)c2cc(C)sc2n1 [Example 532, N2,6-dimethyl-N4-(3-(4′-(trifluoromethoxy)-[1,1′-biphenyl]-4-yl)propyl)thieno[2,3-d]pyrimidine-2,4-diamine] | 0.049 |
| Cc1cc2c(NCCCc3ccc(-c4ccc(OC(F)(F)F)cc4)cc3)nc(N3CCC3)nc2s1 [Example 533, 2-(azetidin-1-yl)-6-methyl-N-(3-(4′-(trifluoromethoxy)-[1,1′-biphenyl]-4-yl)propyl)thieno[2,3-d]pyrimidin-4-amine] | 0.93 |
